Measured values reported in patent US7879848B2, “Dipeptidyl Peptidase-IV inhibiting compounds, method of preparing the same, and pharmaceutical compositions containing the same as an active agent” (LG Life Sciences, Ltd., priority 2005, dated 2011).
pIC50: −log10 of the molar value.

Target: T1, Dipeptidyl Peptidase-IV (DPP-IV) (Homo sapiens, UniProt P27487)
T1 construct: made in house
Assay: Measurement of DPP-IV Activity-Inhibiting Ability (fluorescent substrate Ac-Gly-Pro-AFC)
Assay type: biochemical
Settings: 25° C., 50 mmol HEPES (pH 7.4), DP-IV 7.1 nM, enzyme reaction for 1 hour
Text: Dipeptidyl Peptidase-IV (DPP-IV), known as serine protease, was obtained by a modification of the known method (Tanaka T. et al, Proc. Natl. Acad. Sci. USA, (1994) 91, 3082-3086), which comprises cloning, purification by use of Baculo-Virus and activation steps. DPP-IV was used to test the pharmaceutical efficacy of candidate inhibitors as follows. The cloned DP-IV was expressed in Baculo-Virus, which was purified by nickel column and then subjected to dialysis. The inhibitors synthesized in Examples were tested to determine the binding activity there of using a fluorescent substrate, Ac-Gly-Pro-AFC. Enzyme reactions were conducted for various concentrations of inhibitors, using 100 µM Ac-Gly-Pro-AFC at 25° C. in a buffer solution containing 50 mmol HEPES (pH 7.4), with the concentration of DP-IV being 7.1 nM. […] As the fluorescent spectrometer, Spectra MAX GeminiXS fluorescent spectrometer from Molecular Device Co. was used and the excitation frequency and emission frequency were set to 400 nm and 505 nm, respectively.

T1 sequence (P27487 whole entry): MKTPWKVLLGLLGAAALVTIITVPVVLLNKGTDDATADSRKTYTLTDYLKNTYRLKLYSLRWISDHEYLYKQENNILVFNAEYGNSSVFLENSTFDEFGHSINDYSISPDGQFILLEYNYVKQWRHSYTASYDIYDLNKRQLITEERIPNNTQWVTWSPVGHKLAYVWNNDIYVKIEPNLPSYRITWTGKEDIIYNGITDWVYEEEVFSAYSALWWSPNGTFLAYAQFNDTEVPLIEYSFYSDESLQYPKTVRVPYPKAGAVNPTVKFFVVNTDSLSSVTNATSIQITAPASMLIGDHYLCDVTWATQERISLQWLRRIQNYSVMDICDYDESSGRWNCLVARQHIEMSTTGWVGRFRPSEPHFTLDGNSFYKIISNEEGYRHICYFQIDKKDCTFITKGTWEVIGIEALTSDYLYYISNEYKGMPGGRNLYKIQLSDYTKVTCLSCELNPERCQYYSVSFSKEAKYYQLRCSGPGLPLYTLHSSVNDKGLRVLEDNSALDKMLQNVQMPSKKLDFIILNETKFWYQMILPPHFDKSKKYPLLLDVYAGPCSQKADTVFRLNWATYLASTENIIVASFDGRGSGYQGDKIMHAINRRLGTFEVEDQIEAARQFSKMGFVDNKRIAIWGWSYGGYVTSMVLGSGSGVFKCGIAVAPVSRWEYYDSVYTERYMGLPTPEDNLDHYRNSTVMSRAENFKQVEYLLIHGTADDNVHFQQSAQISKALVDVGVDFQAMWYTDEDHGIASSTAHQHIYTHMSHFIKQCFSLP

Row | Compound | pIC50
1 | C[C@@H]1CCC(=O)N(C[C@@H](N)CC(=O)N2CCc3sc(-c4ccc(C(F)(F)F)cc4)nc3C2)C1 [Ex. 41, (5R)-1-[(2S)-2-amino-4-oxo-4-{2-[4-(trifluoromethyl)phenyl]-6,7-dihydro[1,3]thiazolo[4,5,c]pyridin-5(4H)-yl}butyl]-5-methylpiperidin-2-one] | 7.85
2 | C[C@H]1CN(C[C@@H](N)CC(=O)N2CCc3sc(-c4ccc(C(F)(F)F)cc4)nc3C2)C(=O)CO1 [Ex. 42, (6S)-4-[(2S)-2-amino-4-oxo-4-{2-[4-(trifluoromethyl)phenyl]-6,7-dihydro[1,3]thiazolo[4,5,c]pyridin-5(4H)-yl}butyl]-6-methylmorpholine-3-one] | 7.85
3 | N[C@@H](CC(=O)N1CCc2sc(-c3ccc(C(F)(F)F)cc3)nc2C1)CN1CC(F)(F)CCC1=O [Ex. 43, 1-[(2S)-2-amino-4-oxo-4-{2-[4-(trifluoromethyl)phenyl]-6,7-dihydro[1,3]thiazolo[4,5,c]pyridin-5(4H)-yl}butyl]-5,5-difluoropiperidin-2-one] | 8.05
4 | C[C@@H]1CCC(=O)N(C[C@@H](N)CC(=O)N2CCc3sc(-c4ccc(F)cc4)nc3C2)C1 [Ex. 44, (5R)-1-{(2S)-2-amino-4-[2-(4-fluorophenyl)-6,7-dihydro[1,3]thiazolo[4,5,c]pyridin-5(4H)-yl]-4-oxobutyl}-5-methylpiperidin-2-one] | 7.89
5 | C[C@H]1CN(C[C@@H](N)CC(=O)N2CCc3sc(-c4ccc(F)cc4)nc3C2)C(=O)CO1 [Ex. 45, (6S)-4-{(2S)-2-amino-4-oxo-4-[2-(4-fluorophenyl)6,7-dihydro[1,3]thiazolo[4,5,c]pyridin-5(4H)-yl]butyl}-6-methylmorpholine-3-one] | 7.66
6 | N[C@@H](CC(=O)N1CCc2sc(-c3ccc(F)cc3)nc2C1)CN1CC(F)(F)CCC1=O [Ex. 46, 1-{(2S)-2-amino-4-[2-(4-fluorophenyl)-6,7-dihydro[1,3]thiazolo[4,5,c]pyridin-5(4H)-yl]-4-oxobutyl}-5,5-difluoropiperidin-2-one] | 7.66
7 | C[C@@H]1CCC(=O)N(C[C@@H](N)CC(=O)N2CCc3sc(C4CCOCC4)nc3C2)C1 [Ex. 47, (5R)-1-{(2S)-2-amino-4-oxo-4-[2-(tetrahydro-2H-pyran-4-yl)-6,7-dihydro[1,3]thiazolo[4,5,c]pyridin-5(4H)-yl]butyl}-5-methylpiperidin-2-one] | 6.55
8 | C[C@H]1CN(C[C@@H](N)CC(=O)N2CCc3sc(C4CCOCC4)nc3C2)C(=O)CO1 [Ex. 48, (6S)-4-{(2R)-2-amino-4-oxo-4-[2-(tetrahydro-2H-pyran-4-yl)-6,7-dihydro[1,3]thiazolo[4,5,c]pyridin-5(4H)-yl]butyl}-6-methylmorpholine-3-one] | 6.45
9 | N[C@@H](CC(=O)N1CCc2sc(C3CCOCC3)nc2C1)CN1CC(F)(F)CCC1=O [Ex. 49, 1-{(2S)-2-amino-4-oxo-4-[2-(tetrahydro-2H-pyran-4-yl)-6,7-dihydro[1,3]thiazolo[4,5, c]pyridin-5(4H)-yl]butyl}-5,5-difluoropiperidin-2-one] | 6.63
10 | C[C@H]1CN(C[C@@H](N)CC(=O)N2CCc3sc(C(F)(F)F)nc3C2)C(=O)CO1 [Ex. 50, (6S)-4-{(2S)-2-amino-4-oxo-4-[2-(trifluoromethyl)-6,7-dihydro[1,3]thiazolo[4,5,c]pyridin-5(4H)-yl]butyl}-6-methylmorpholine-3-one] | 6.37
11 | N[C@@H](CC(=O)N1CCc2sc(C(F)(F)F)nc2C1)CN1CC(F)(F)CCC1=O [Ex. 51, 1-{(2S)-2-amino-4-oxo-4-[2-(trifluoromethyl)-6,7-dihydro[1,3]thiazolo[4,5,c]pyridin-5(4H)-yl]butyl}-5,5-difluoropiperidin-2-one] | 6.94
12 | COCCc1nc2c(c(C(F)(F)F)n1)CCN(C(=O)C[C@H](N)CN1C[C@H](C)CCC1=O)C2 [Ex. 52, (5R)-1-{(2S)-2-amino-4-[2-(2-methoxyethyl)-4-(trifluoromethyl)-5,8-dihydropyrido[3,4-d]pyrimidin-7(6H)-yl]-4-oxobutyl}-5-methylpiperidin-2-one] | 7.74
